Experimental data from PubChem BioAssay AID743426 (The Scripps Research Institute Molecular Screening Center, 2014).
Calls of active or inactive are those of the source. The rule behind the calls is not given here.

What follows are molecules tested against Sphingosine 1-phosphate receptor 1 (Homo sapiens) (UniProt P21453) (assay: human S1P1 agonists, dose response, counter-screen for S1PR3 antagonist project, cell-based, fluorescence, late-stage (AID 743426)). Settings: S1P1-expressing cells, agonist counterscreen.
Sequence of Sphingosine 1-phosphate receptor 1 (Homo sapiens) (P21453 whole entry, looked up): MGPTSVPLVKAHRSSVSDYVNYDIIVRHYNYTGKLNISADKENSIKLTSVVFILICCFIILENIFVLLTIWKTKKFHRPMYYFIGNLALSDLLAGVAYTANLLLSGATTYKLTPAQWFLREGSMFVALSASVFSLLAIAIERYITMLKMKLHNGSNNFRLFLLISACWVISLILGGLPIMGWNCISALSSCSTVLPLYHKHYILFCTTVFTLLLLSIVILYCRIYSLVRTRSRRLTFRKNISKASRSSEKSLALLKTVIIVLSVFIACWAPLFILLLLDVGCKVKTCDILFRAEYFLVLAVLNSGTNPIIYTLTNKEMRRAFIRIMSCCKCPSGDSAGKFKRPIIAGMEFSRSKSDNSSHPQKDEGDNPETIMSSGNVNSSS

EC50 | Structure (SMILES)
> 50 µM (inactive) | O=C(NC(c1ccc(Cl)cc1)c1nc(-c2cccc(Cl)c2)no1)c1cccc(Cl)c1 (configuration not stated)
> 50 µM (inactive) | O=C(NC(c1cccc(Cl)c1)c1nc(-c2ccccc2)no1)c1ccc(Cl)c(Cl)c1 (configuration not stated)
> 50 µM (inactive) | O=C(NC(c1ccc(Cl)cc1)c1nc(-c2ccccc2)no1)c1cccc(Cl)c1 (configuration not stated)
> 50 µM (inactive) | O=C(NC(c1ccc(Cl)cc1)c1nc(-c2ccccc2)no1)c1ccc(Cl)c(Cl)c1 (configuration not stated)
> 50 µM (inactive) | O=C(NC(c1ccc(Cl)c(Cl)c1)c1nc(-c2ccccc2)no1)c1cccc(Cl)c1 (configuration not stated)
> 50 µM (inactive) | O=C(NC(c1ccc(Cl)cc1)c1nc(-c2ccccc2)no1)c1cccc(Br)c1 (configuration not stated)
> 50 µM (inactive) | O=C(NC(c1ccccc1)c1nc(-c2ccccc2)no1)c1ccc(Cl)cc1 (configuration not stated)
> 50 µM (inactive) | O=C(NC(c1ccc(Br)cc1)c1nc(-c2ccccc2)no1)c1ccc(Cl)c(Cl)c1 (configuration not stated)
> 50 µM (inactive) | O=C(NC(c1ccc(Cl)c(Cl)c1)c1nc(-c2ccccc2)no1)c1ccccc1 (configuration not stated)
> 50 µM (inactive) | N#Cc1ccc(C(=O)NC(c2ccc(Cl)c(Cl)c2)c2nc(-c3ccccc3)no2)cc1 (configuration not stated)
> 50 µM (inactive) | O=C(NC(c1ccc(Cl)cc1)c1nc(-c2ccccc2)no1)c1ccc(Cl)c(Br)c1 (configuration not stated)
> 50 µM (inactive) | O=C(NC(c1ccc(Cl)c(Cl)c1)c1nc(-c2ccccc2)no1)c1ccc(Cl)c(Cl)c1 (configuration not stated)
> 50 µM (inactive) | O=C(NC(c1ccc(Cl)c(Cl)c1)c1nc(-c2ccccc2)no1)c1ccc(Cl)cc1 (configuration not stated)

The next lines start with the molecule.

Structure (SMILES) | EC50
O=C(NC(c1cccc(Cl)c1)c1nc(-c2ccccc2)no1)c1cccc(Cl)c1 (configuration not stated) | > 50 µM (inactive)
O=C(NC(c1nc(-c2ccccc2)no1)C1CCOCC1)c1ccc(Cl)c(Cl)c1 (configuration not stated) | > 50 µM (inactive)
O=C(NC(Cc1ccccc1)c1nc(-c2ccccc2)no1)c1cccc(Cl)c1 (configuration not stated) | inactive
CCc1ccc(C(NC(=O)c2cccc(Cl)c2)c2nc(-c3ccccc3)no2)cc1 (configuration not stated) | > 50 µM (inactive)
COc1ccc(C(=O)NC(c2ccccc2)c2nc(-c3ccccc3)no2)cc1 (configuration not stated) | > 50 µM (inactive)
O=C(c1cccc(Cl)c1)N(CCO)C(c1ccc(Cl)c(Cl)c1)c1nc(-c2ccccc2)no1 (configuration not stated) | inactive
O=C(NC(c1cccc(Cl)c1)c1nc(-c2ccccc2)no1)c1cc(Cl)cc(Cl)c1 (configuration not stated) | > 50 µM (inactive)
O=C(NC(c1ccc(Cl)cc1)c1nc(-c2ccccn2)no1)c1cccc(Cl)c1 (configuration not stated) | > 50 µM (inactive)
Cc1ccc(C(NC(=O)c2cccc(Cl)c2)c2nc(-c3ccccc3)no2)cc1 (configuration not stated) | > 50 µM (inactive)
Cc1ccc(C(=O)NC(c2ccccc2)c2nc(-c3ccccc3)no2)cc1 (configuration not stated) | > 50 µM (inactive)
O=C(NC(c1nc(-c2ccccc2)no1)C1CCCCC1)c1ccc(Cl)c(Cl)c1 (configuration not stated) | > 50 µM (inactive)
O=C(NC(c1ccccc1)c1nc(-c2ccccc2)no1)c1cccc(Br)c1 (configuration not stated) | inactive
O=C(NC(c1ccccc1)c1nc(-c2ccccc2)no1)c1cccc(Cl)c1 (configuration not stated) | > 50 µM (inactive)
O=C(NC(c1ccccc1)c1nc(-c2ccccc2)no1)c1cccc(Cl)n1 (configuration not stated) | inactive
